Assay results from PubChem BioAssay AID1996.
Values after ≈ are worked out from the molar mass of the structure shown.

details: buffer; pH 7.4; 200.0 µM

SMILES	solubility kinetic [µg/mL]
O=C1C2C3CCC(C3)C2C(=O)N1c1ccc2ccccc2c1 (centres undefined)	5 (≈ 17.2 µM)
O=C(NC1CCOc2ccccc21)c1ccccn1 (centres undefined)	36.1 (≈ 142 µM)
CC(=O)c1c(C)[nH]c(C(=O)Nc2cccc(S(=O)(=O)N3CCCC3)c2)c1C	7 (≈ 18 µM)
Fc1ccc(F)c(NC2=NCCCCC2)c1	> 33.6
O=C(COC(=O)c1ccc(F)cc1)NCC1CCCCC1	9.4 (≈ 32 µM)
O=C(COC(=O)c1ccc([N+](=O)[O-])cc1)NC12CC3CC(CC(C3)C1)C2	3.3 (≈ 9.21 µM)
CCn1c(=NC(=O)COc2ccccc2)sc2cccc(F)c21	< 0.4
COc1ccc(OC)c(Cc2nnc(CCC(=O)N3CCCCCC3)o2)c1	> 56
N#C/C(=C/c1ccncc1)c1nc2ccccc2c(=O)[nH]1	> 41.1
COc1ccc(NC(=O)CCC(=O)c2cccs2)cc1Cl	6.5 (≈ 20.1 µM)
c1ccc2[nH]c(-c3cscn3)nc2c1	> 30.2
O=C(Nc1ccc2oc(-c3ccncc3)nc2c1)c1ccccc1	< 0.2
CNC(=O)c1c(NC(=O)c2ccco2)sc2c1CCCC2	2.7 (≈ 8.87 µM)
Cc1ccc(C)c(NC(=O)CN2C(=O)NC(CCc3ccccc3)C2=O)c1 (centres undefined)	2.5 (≈ 6.84 µM)
Cc1ccc(NC(=O)CC(=O)Nc2ccc(C)cc2C)c(C)c1	6.3 (≈ 20.3 µM)
CC1(C)CC(=O)C(CC(=O)N2CCC(Cc3ccccc3)CC2)C(=O)C1	> 53.3
O=C(CSCc1c(F)cccc1F)Nc1ccccc1	37.7 (≈ 129 µM)
Cc1ccccc1NC(=O)c1cc(-c2ccccc2)n(CCCN2CCOCC2)c1C	16.3 (≈ 39 µM)
CCOCCc1c(O)[nH]c(=S)[nH]c1=O	> 32.4
CC1CCCC(C)N1C(=O)COC(=O)c1cccnc1Cl (centres undefined)	> 46.6
CC(C)(C)c1ccc(C(=O)N2CCC(C(=O)NC3CC3)CC2)cc1	48 (≈ 146 µM)
Clc1ccccc1N=C1SCCS1	18.2 (≈ 79.2 µM)
COc1ccc(-n2c(C)cc3cc(OC(C)=O)ccc32)cc1	0.7 (≈ 2.37 µM)
CC1CCN(c2ccc3nnc(CCC(=O)NC(C)C)n3n2)CC1	> 49.6

SMILES	solubility kinetic [µg/mL]
CCC(=O)Nc1ccc(NCc2ccc(-c3ccccc3)cc2)cc1	28.6 (≈ 86.6 µM)
Cn1c(SCC(=O)NC2CCCCC2)nnc1-c1ccccn1	> 49.7
OC(C#CCN1CCCCC1)(c1ccccc1)c1ccccc1	13 (≈ 42.6 µM)
Cc1ccc(OCC(=O)O/N=C(\N)c2ccncc2)cc1C	18.6 (≈ 62.1 µM)
Cc1ccc2[nH]cc(S(=O)(=O)c3ccc(C(C)C)cc3)c(=O)c2c1	< 0.7
O=C(NCCOc1ccccc1F)Nc1ccc(Br)cc1	2.1 (≈ 5.95 µM)
COc1ccc(-c2c(C(=O)O)c(C(=O)O)c3n2CCC3)cc1	> 45.2
O=c1ccnc(SCCc2ccccc2)[nH]1	> 34.8
CCCCc1nc2ccccc2[nH]1	> 26.1
Cc1cc(Br)ccc1S(=O)(=O)NCc1ccccc1	32.5 (≈ 95.5 µM)
Cc1noc(C)c1C(=O)Nc1ccccc1N1CCCC1	37.6 (≈ 132 µM)
CC(=O)Nc1ccc(NC(=O)c2cc(=O)c3cc(C)c(C)cc3o2)cc1	0.6 (≈ 1.71 µM)
O=C(Nc1ccccc1)C1COc2ccccc2O1 (centres undefined)	30.1 (≈ 118 µM)
CC1Cc2ccccc2N1C(=O)CN1CCC(C(N)=O)CC1 (centres undefined)	> 45.2
NC(=O)COC(=O)C1CSC2(c3ccc(F)cc3)CCC(=O)N12 (centres undefined)	49.4 (≈ 146 µM)
COC(=O)c1cn(-c2cccc(C)n2)cn1	> 32.6
COc1ccccc1Oc1ccc(NC(=O)Cc2ccccc2)cc1	< 0.7
CNc1snc(C)c1C(=O)OC(C)C(=O)Nc1ccccc1 (centres undefined)	34.5 (≈ 108 µM)
COc1ccc(-n2nc3c(c2NC(C)=O)CS(=O)(=O)C3)cc1	> 48.2
O=S(=O)(Nc1nc2ccccc2nc1Cl)c1ccc(F)cc1	> 50.7
COc1ccc(OC)c(NC(=O)c2ccno2)c1	> 37.2
COc1ccccc1NS(=O)(=O)c1cccc(NS(=O)(=O)c2cc(C(=O)O)ccc2OC)c1	> 73.9
Cc1ccc(CNC(=O)CCCc2ccccc2)cc1	9.2 (≈ 34.4 µM)
COc1ccc(-c2csc(Nc3cc(C)ccn3)n2)cc1C	< 0.2

SMILES	solubility kinetic [µg/mL]
CCS(=O)(=O)c1ccc(O)c(NC(=O)/C=C/c2ccc(Cl)cc2)c1	3.9 (≈ 10.7 µM)
CN(C)CCNC(=O)c1ccccc1-c1cc2ccccc2c(=O)o1	> 50.5
O=Cc1c(Nc2ccccc2Cl)nc2ccccn2c1=O	< 0.2
O=[N+]([O-])c1cccc(N=Cc2sc3ccccc3c2O)c1	< 0.3
CCOC(=O)c1ccc(S(=O)(=O)Nc2cc(S(=O)(=O)N3CCOCC3)ccc2O)cc1	69.5 (≈ 148 µM)
O=C(O)c1ccc(CN2C(=O)c3ccc(C(=O)O)cc3C2=O)cc1	> 48.8
CC(=O)C1=C(O)C(=O)N(c2ccc(O)cc2)C1c1ccc([N+](=O)[O-])cc1 (centres undefined)	> 53.1
O=C1NC(=O)C(c2cccs2)(c2cccs2)N1	> 39.6
Nc1nc(Nc2ccc(Cl)cc2)c(NC=O)c(=O)[nH]1	> 42
NC(=O)c1ccccc1	> 18.2
CC1CC(C)(C)NC(=S)N1CCC(=O)N1c2ccccc2CC1C (centres undefined)	5.3 (≈ 15.3 µM)
Cc1ccnc(NS(=O)(=O)c2ccccc2)c1	31.3 (≈ 126 µM)
O=C(COC(=O)c1cccnc1Cl)NC12CC3CC(CC(C3)C1)C2	50.1 (≈ 144 µM)
O=C(O)c1ccccc1Nc1ccc([N+](=O)[O-])cc1C(=O)O	> 45.3
COc1ccc(N=C(C)c2sc3ccccc3c2O)cc1	< 0.6
COc1cc2c(cc1OC)C(COc1ccc(C(C)C)cc1)NCC2 (centres undefined)	35.1 (≈ 103 µM)
CC(NC(=O)COC(=O)COc1ccc(Cl)cc1)c1ccccc1 (centres undefined)	40.2 (≈ 116 µM)
Cc1ccc(N=C2NC(=O)/C(=C/c3cccn3C)S2)c(C)c1	1.2 (≈ 3.85 µM)
CCC1CCCCN1CC(C)(C)NS(=O)(=O)c1ccccc1 (centres undefined)	39.2 (≈ 121 µM)
O=C(NCc1ccc(F)cc1)c1cccs1	29.9 (≈ 127 µM)
NC1=NC(=O)C(Cc2ccccc2)S1 (centres undefined)	> 30.9
O=C(O)CC1SC(=O)N(CC(=O)c2ccccc2)C1=O (centres undefined)	> 44
NC(=O)c1ccc(NC(=S)NCc2ccco2)cc1	> 41.3
O=C(OCC(=O)N1CCOCC1)c1cc(F)c(F)cc1Cl	> 48

SMILES	solubility kinetic [µg/mL]
Cc1ccc2c(C)cc(=S)[nH]c2c1	7.1 (≈ 37.5 µM)
Cc1ccc(C(=O)NCC(=O)N2CCCCCCC2)cc1C	> 45.4
O=C(/C=C/c1ccc([N+](=O)[O-])cc1)Nc1cccc(S(=O)(=O)NC2=NCCCCC2)c1	11.5 (≈ 26 µM)
COc1cc(NC(=O)CCCn2c(=O)oc3ccccc32)cc(OC)c1	24.2 (≈ 67.9 µM)
Cn1cnc([N+](=O)[O-])c1C(=O)Nc1cccc([N+](=O)[O-])c1	11.2 (≈ 38.5 µM)
Cn1nccc1C(=O)N1CCC(Cc2ccccc2)CC1	> 42.5
O=C(Nc1ccccc1C(=O)Nc1cccnc1)c1ccccc1	6.3 (≈ 19.9 µM)
CC1(C)CC(NC(=O)c2ccc(Cl)c(Cl)c2)CC(C)(C)N1	> 49.4
O=C1CNC(=S)N1CCOc1ccccc1	30.4 (≈ 129 µM)
O=C(COc1ccccc1Cl)Nc1ccc2oc(=O)ccc2c1	< 0.7
Cc1cnc(C(=O)OCC(=O)N2CC(C)CC(C)C2)cn1 (centres undefined)	43.3 (≈ 149 µM)
CC(=O)N(C)c1ccc(NC(=O)Nc2cccc3ccccc23)cc1	1.3 (≈ 3.9 µM)
Cc1nnc(Nc2ccc(C(=O)O)cc2)[nH]c1=O	> 36.9
C/C(=N/OC(=O)c1ccc(C(F)(F)F)cc1)c1oc(C)nc1C	8.1 (≈ 24.8 µM)
O=C(CN1C(=O)c2ccccc2C1=O)Nc1nccs1	17.4 (≈ 60.6 µM)
Cc1ccc(NC(=O)COC(=O)C2CC2)cc1S(=O)(=O)N1CCOCC1	> 57.4
COc1ccc(C=O)cc1OC(=O)N1CCOCC1	> 39.8
COc1ncnc(OC)c1S(=O)(=O)NCc1ccccc1	> 46.4
CCN1CCCC1CNC(=S)Nc1ccc(C(C)=O)cc1 (centres undefined)	> 45.8
COc1cc(OC)c(C(=O)Nc2ccc(C(=O)c3ccccc3)cc2)cc1OC	3.4 (≈ 8.69 µM)
Cc1nc(SCC(=O)NC2CCCC2)c2c(C)c(C)sc2n1	0.5 (≈ 1.49 µM)
O=[N+]([O-])c1cc(S(=O)(=O)N2CCCC2)ccc1SCCO	> 49.9
CC1CCCCC12NC(=O)N(CC(=O)Nc1ccc(OC(F)F)cc1)C2=O (centres undefined)	18.2 (≈ 47.7 µM)
O=[N+]([O-])c1ccc(NCCCN2CCOCC2)nc1	> 39.9

SMILES	solubility kinetic [µg/mL]
COc1ccccc1NC(=O)COC(=O)c1ccc(S(=O)(=O)N2CCCCCC2)cc1	2.6 (≈ 5.82 µM)
O=[N+]([O-])c1ccc(P(=O)(Cc2ccccc2)c2ccccc2O)cc1 (centres undefined)	17 (≈ 48.1 µM)
COc1cc(C(=O)NC(=S)N2CCN(C)CC2)cc(OC)c1OC	> 53
O=C(Nc1c(-c2ccc(F)cc2)nc2ccccn12)c1ccc(F)cc1	3.3 (≈ 9.45 µM)
CCC(=O)Nc1ccc2c(c1)N(C(C)=O)c1ccccc1CC2	> 46.3
C=C(C)c1cccc(C(C)(C)NC(=O)Nc2ccc(OC)nc2)c1	14 (≈ 43 µM)
Cn1c(C2=C(O)CN(c3ccccc3)C2=N)nc2ccccc21	44.5 (≈ 146 µM)
CN(C)c1ccc(-c2nc3cc(N)ccc3o2)cc1	14 (≈ 55.3 µM)
Cc1onc(-c2ccccc2Cl)c1C(=O)NCc1ccc(F)cc1	45.3 (≈ 131 µM)
CCC(C)n1c(O)c(C=NCc2cccnc2)c(=O)[nH]c1=S (centres undefined)	44.8 (≈ 141 µM)
Cc1ccc2cccc(SCC(=O)Nc3ccc(F)cc3)c2n1	< 0.3
Cc1ccc(NC(=O)CN2C(=O)S/C(=C\c3ccccn3)C2=O)cc1	0.9 (≈ 2.55 µM)
Cc1cc(/C=C(\C#N)C(=O)N2CCOCC2)c(C)n1C1CCCC1	32.9 (≈ 100 µM)
CC1CCCN(C(=O)COC(=O)Cc2ccc(Cl)cc2)C1 (centres undefined)	29.8 (≈ 96.2 µM)
CCCCn1c(=O)c(CCC(=O)O)nc2ccccc21	31.8 (≈ 116 µM)
Cc1c(Br)ccc(NC(=O)COc2ccccc2C(N)=O)c1C	< 0.4
CCCc1nc(SCC(=O)Nc2nccs2)c2ccccc2n1	0.9 (≈ 2.61 µM)
Cc1ccc(S(=O)(=O)NC(=O)Nc2ccc(OC(F)F)cc2)cc1	52.3 (≈ 147 µM)
Cc1cc(C(=O)Nc2ccc(Cl)cc2)on1	3.8 (≈ 16.1 µM)
COc1ccc(CC(=O)N2CCN(c3ccc(F)cc3)CC2)cc1	38.3 (≈ 117 µM)
O=C(O)c1cccc(Nc2nc3ccccc3nc2NS(=O)(=O)c2ccccc2)c1	> 63.1
O=C(COc1ccccc1Cl)NCCNC(=O)c1cnccn1	39.6 (≈ 118 µM)
c1ccc(CCCN2CCN(c3ccccc3)CC2)cc1	24.3 (≈ 86.7 µM)
